Laboratory results taken from patent US10144742B2 (Millennium Pharmaceuticals, Inc., priority 2014, dated 2018).
Like-named read-outs stand apart in the source and are kept apart here.

Legend:
[1] = target: hNAMPT protein (Homo sapiens (Human), UniProt P43490); assay: NAMPT enzyme assay (TR-FRET/HTRF, BodiPY ligand, anti 6His-Tb); type: binding; settings: for IC50: read-out: IC50; for inhibition at 1 µM: read-out: Percent Inhibition
From the text: As discussed above, the invention provides compounds that are useful as inhibitors of the enzyme NAMPT. The NAMPT inhibition of a compound of the invention can be measured using a variety of methods known in the art. For example, the ability of a compound of the invention to inhibit NAMPT enzyme activity can be measured using a homogeneous time resolved fluorescence (HTRF) assay using hNAMPT protein and anti 6His-Tb in buffer treated with a compound of the invention (or control e.g., DMSO) and BodiPY ligand. The TR-FRET signal can be measured using a high throughput microplate reader (e.g., Pherastar). Excitation can be carried out at 320 nm. The percent inhibition value at a single concentration of compound of the invention can be calculated relative to a control treated sample. A concentration response curve can be generated for each compound of the invention and the curve fitted to generate an IC50 value. […] Cat. No. […] To this solution is added test compounds or vehicle control (DMSO) and BodiPY ligand (structure below). The plate is shaken for 1-2 min, sealed and incubated for 1 hour at rt in the dark. The TR-FRET signal is measured using BMG Pherastar (Lanthascreen protocol on BMG Pherastar). Excitation was carried out at 320 nm, and the ratio of emission of BodiPY (520 nm) to terbium (486 nm) was determined. Concentration response curves are generated by calculating the excitation increase in test compound-treated samples relative to DMSO-treated controls. For the assay method described above, test compound percent inhibition values at a single concentration are calculated relative to control (DMSO) treated samples. Compound concentration response curves are fitted to generate IC50 values from those curves. One skilled in the art will appreciate that these values generated either as percentage inhibition at a single concentration or IC50 values are subject to experimental variation.

[2] = system: PC3 cells; assay: PC3 growth inhibition (Cell-titer glo, 72 hours); type: cell-based; settings: PC3 cells, 72 hours, Cell-titer glo; for inhibition at 1.667 µM / inhibition at 1 µM: Homo sapiens, PC-3, read-out: Percent Inhibition (PC3 growth inhibition); for inhibition at 1 µM: compound concentration 1 μM
Method: The ability of a compound of the invention to inhibit the growth of cells can be measured using a variety of methods known in the art. For example, the ability of a compound of the invention to inhibit the growth of PC3 cells can be measured. PC3 cells can be plated and incubated overnight under CO2. For each measurement, a compound of the invention (or vehicle e.g., DMSO) can be diluted with AIM serum free medium and added to the cell plate. The cell plate can then be incubated for 72 h under CO2. Cell-titer glo solution can be added and the plates can be incubated protected from light and the amount of luminescences can be measured. Concentration response curves can be generated by calculating the luminescence increase in test compound treated samples relative to DMSO-treated controls. Percentage remaining viability values at a single concentration can be measured. Growth inhibition (GI50) or cell viability (LD50) values can be determined from those curves.
Compounds of the invention were assayed to measure PC3 growth inhibition at a concentration of 1 μM or 1.667 μM (Table 3). To measure PC3 growth inhibition, PC3 cells that were maintained in PRMI1640 growth medium (Life Technologies; Cat. No. 11875) at 37° C. under 5% CO2 are trypsinized and diluted at a density of 8×10^4 cells/ml, 25 ul per well of cells and plated in 384-well black tissue culture plate. The cells are incubated overnight at 37° C. under 5% CO2. For each measurement, a test compounds or vehicle control (DMSO) are diluted with AIM serum free medium and added to the cell plate. Incubate for 72 hours at 37° C. under 5% CO2. 25 μl Cell-titer glo solution (Promega; Cat. No. G8462) is added and the cell plates are incubated for 10 minutes protected from light. The luminescence is measured. Concentration response curves are generated by calculating the luminescence increase in test compound-treated samples relative to DMSO-treated controls. Percentage remaining viability values at a single concentration, growth inhibition (GI50) or cell viability (LD50) values are determined from those curves. One skilled in the art will appreciate that these values are subject to experimental variation.

[3] = compound concentration 1.667 μM

hNAMPT protein, sequence (P43490 whole entry): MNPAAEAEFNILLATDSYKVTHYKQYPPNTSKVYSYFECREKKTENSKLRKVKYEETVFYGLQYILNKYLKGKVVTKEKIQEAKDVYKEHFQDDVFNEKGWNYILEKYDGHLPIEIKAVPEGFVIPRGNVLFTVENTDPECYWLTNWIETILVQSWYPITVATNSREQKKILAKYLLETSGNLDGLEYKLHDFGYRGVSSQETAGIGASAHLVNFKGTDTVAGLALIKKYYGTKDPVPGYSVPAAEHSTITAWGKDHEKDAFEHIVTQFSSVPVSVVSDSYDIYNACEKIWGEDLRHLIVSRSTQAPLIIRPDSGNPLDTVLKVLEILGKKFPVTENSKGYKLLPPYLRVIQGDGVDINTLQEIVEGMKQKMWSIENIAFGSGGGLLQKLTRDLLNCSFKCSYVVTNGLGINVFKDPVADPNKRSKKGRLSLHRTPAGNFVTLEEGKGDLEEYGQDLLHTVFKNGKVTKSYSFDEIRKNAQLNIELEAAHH

| SMILES | IC50 ([1]; NAMPT IC50 range class) | inhibition at 1 µM ([1]; compound concentration 1 μM) | other results |
| --- | --- | --- | --- |
| O=C(NCCCc1ncc[nH]1)c1ccc2nc(-c3ccc(Cl)cc3)c(-c3ccc(Cl)cc3)nc2c1 [Compound I-315, 2,3-bis(4-chlorophenyl)-N-[3-(1H-imidazol-2-yl)propyl]quinoxaline-6-carboxamide] | 100 to 500 nM | 88% | inhibition at 1.667 µM [2, 3]: 1% |
| CS(=O)(=O)c1cccc(-c2nc3cc(C(=O)NCCCc4ncc[nH]4)ccc3nc2-c2ccc(F)cc2)c1 [Compound I-384, 2-(4-fluorophenyl)-N-[3-(1H-imidazol-2-yl)propyl]-3-[3-(methylsulfonyl)phenyl]quinoxaline-6-carboxamide] | 100 to 500 nM | 84% | inhibition at 1.667 µM [2, 3]: 2% |
| O=C(NCCCc1ncc[nH]1)c1ccc2nc(N3CCC(N4CCOCC4)CC3)c(-c3ccc(F)cc3)nc2c1 [Compound I-23, 3-(4-fluorophenyl)-N-[3-(1H-imidazol-2-yl)propyl]-2-[4-(morpholin-4-yl)piperidin-1-yl]quinoxaline-6-carboxamide] | < 100 nM | 100% | inhibition at 1.667 µM [2, 3]: 2% |
| O=C(NCCCn1ccnc1)c1ccc2nc(N3CCC4(COC4)C3)c(-c3ccccc3)nc2c1 [Compound I-243, N-[3-(1H-imidazol-1-yl)propyl]-2-(2-oxa-6-azaspiro[3.4]oct-6-yl)-3-phenylquinoxaline-6-carboxamide] | 500 to 1000 nM | 62% | inhibition at 1 µM [2]: -6% |
| NS(=O)(=O)c1cccc(-c2nc3cc(C(=O)NCCCc4ncc[nH]4)ccc3nc2-c2ccc(F)cc2)c1 [Compound I-308, 2-(4-fluorophenyl)-N-[3-(1H-imidazol-2-yl)propyl]-3-(3-sulfamoylphenyl)quinoxaline-6-carboxamide] | 100 to 500 nM | 89% | inhibition at 1.667 µM [2, 3]: 4% |
| COc1cc(OC)cc(-c2nc3cc(C(=O)NCCCn4ccnc4)ccc3nc2-c2ccccc2)c1 [Compound I-245, 3-(3,5-dimethoxyphenyl)-N-[3-(1H-imidazol-1-yl)propyl]-2-phenylquinoxaline-6-carboxamide] | 500 to 1000 nM | 62% | inhibition at 1 µM [2]: -8% |
| COc1cc(-c2nc3cc(C(=O)NCCCc4ncc[nH]4)ccc3nc2OC(C)C)ccc1F [Compound I-344, 3-(4-fluoro-3-methoxyphenyl)-N-[3-(1H-imidazol-2-yl)propyl]-2-isopropoxyquinoxaline-6-carboxamide] | < 100 nM |  | Percent Inhibition ([1]; compound concentration 1 μM): >99%; Percent Inhibition (PC3 growth inhibition) [2, 3]: 1% |
| COC1CCN(c2nc3ccc(C(=O)NCCCn4ccnc4)cc3nc2-c2ccccc2)C1 (stereo not shown) [Compound I-226, N-[3-(1H-imidazol-1-yl)propyl]-2-(3-methoxypyrrolidin-1-yl)-3-phenylquinoxaline-6-carboxamide] | 100 to 500 nM | 70% | inhibition at 1 µM [2]: -7% |
| O=C(NCCc1c[nH]c2ccccc12)c1ccc2nc(-c3ccc(F)cc3)c(-c3ccc(F)cc3)nc2c1 [Compound I-293, 2,3-bis(4-fluorophenyl)-N-[2-(1H-indol-3-yl)ethyl]quinoxaline-6-carboxamide] | 2000 to 10000 nM | 26% |  |
| O=C(c1ccc2nc(-c3ccc(F)cc3)c(-c3ccc(F)cc3)nc2c1)N1CC(c2ccccn2)C1 [Compound I-110, [2,3-bis(4-fluorophenyl)quinoxalin-6-yl][3-(pyridin-2-yl)azetidin-1-yl]methanone] | 500 to 1000 nM | 66% |  |
| O=C(c1ccc2nc(-c3ccc(F)cc3)c(-c3ccc(F)cc3)nc2c1)N1CCC(c2ncccn2)C1 (stereo not shown) [Compound I-294, [2,3-bis(4-fluorophenyl)quinoxalin-6-yl][3-(pyrimidin-2-yl)pyrrolidin-1-yl]methanone] | 2000 to 10000 nM | 22% |  |
| Cc1ccc(CCCNC(=O)c2ccc3nc(N4CCCCC4)c(-c4ccc(F)cc4)nc3c2)cn1 [Compound I-185, 3-(4-fluorophenyl)-N-[3-(6-methylpyridin-3-yl)propyl]-2-(piperidin-1-yl)quinoxaline-6-carboxamide] | 500 to 1000 nM | 57% |  |
| Cc1ccc(CCCNC(=O)c2ccc3nc(N4CCOCC4)c(-c4ccc(F)cc4)nc3c2)cn1 [Compound I-21, 3-(4-Fluorophenyl)-N-[3-(6-methylpyridin-3-yl)propyl]-2-(morpholin-4-yl)quinoxaline-6-carboxamide] | 500 to 1000 nM |  | inhibition at 1 µM [1]: 50% |
| O=C(c1ccc2nc(-c3ccc(F)cc3)c(-c3ccc(F)cc3)nc2c1)N1CCC(c2cnccn2)C1 (stereo not shown) [Compound I-40, [2,3-bis(4-fluorophenyl)quinoxalin-6-yl][3-(pyrazin-2-yl)pyrrolidin-1-yl]methanone] | 2000 to 10000 nM | 33% |  |
| O=C(NCCc1ncc[nH]1)c1ccc2nc(N3CCC(N4CCOCC4)CC3)c(-c3ccccc3)nc2c1 [Compound I-71, N-[2-(1H-imidazol-2-yl)ethyl]-2-[4-(morpholin-4-yl)piperidin-1-yl]-3-phenylquinoxaline-6-carboxamide] | 100 to 500 nM | 81% |  |
| O=C(c1ccc2nc(-c3ccc(F)cc3)c(-c3ccc(F)cc3)nc2c1)N1CCc2cnccc2C1 [Compound I-160, [2,3-bis(4-fluorophenyl)quinoxalin-6-yl](3,4-dihydro-2,6-naphthyridin-2(1H)-yl)methanone] | 2000 to 10000 nM | 45% |  |
| O=C(c1ccc2nc(-c3ccc(F)cc3)c(-c3ccc(F)cc3)nc2c1)N1CCCC1Cc1cccnc1 (stereo not shown) [Compound I-246, [2,3-bis(4-fluorophenyl)quinoxalin-6-yl][2-(pyridin-3-ylmethyl)pyrrolidin-1-yl]methanone] | 2000 to 10000 nM | 30% |  |
| O=C(c1ccc2nc(-c3ccc(F)cc3)c(-c3ccc(F)cc3)nc2c1)N1CCC(c2ccncc2)CC1 [Compound I-186, [2,3-bis(4-fluorophenyl)quinoxalin-6-yl][4-(pyridin-4-yl)piperidin-1-yl]methanone] | 2000 to 10000 nM | 19% |  |
| COc1cccc(-c2nc3cc(C(=O)NCCCc4ncc[nH]4)ccc3nc2-c2ccc(F)cc2)n1 [Compound I-495, 2-(4-fluorophenyl)-N-[3-(1H-imidazol-2-yl)propyl]-3-(6-methoxypyridin-2-yl)quinoxaline-6-carboxamide] |  |  | inhibition at 1 µM ([1]; NAMPT inhibition at compound concentration 1 μM): 96%; IC50 ([1]; NAMPT inhibition, IC50 range class): < 100 nM |
| O=C(c1ccc2nc(-c3ccc(F)cc3)c(-c3ccc(F)cc3)nc2c1)N1CC(n2cccn2)C1 [Compound I-249, [2,3-bis(4-fluorophenyl)quinoxalin-6-yl][3-(1H-pyrazol-1-yl)azetidin-1-yl]methanone] | 1000 to 2000 nM | 45% |  |
| O=C(c1ccc2nc(-c3ccc(F)cc3)c(-c3ccc(F)cc3)nc2c1)N1CCC(c2ccncc2)C1 (stereo not shown) [Compound I-98, [2,3-bis(4-fluorophenyl)quinoxalin-6-yl][3-(pyridin-4-yl)pyrrolidin-1-yl]methanone] | 1000 to 2000 nM | 41% |  |
| O=C(NCCCn1ccnc1)c1ccc2nc(-c3ccccc3Cl)c(-c3ccccc3Cl)nc2c1 [Compound I-260, 2,3-bis(2-chlorophenyl)-N-[3-(1H-imidazol-1-yl)propyl]quinoxaline-6-carboxamide] | 2000 to 10000 nM | 19% |  |
